# Experimental data taken from article PMC12471852, “Design and Synthesis of Marine-Inspired Itampolin A Derivatives to Overcome Chemoresistance in NSCLC via Cholesterol Homeostasis Modulation” (Marine Drugs, 2025).
# Where “and” joins values, the source holds several entries; their conditions need not be identical. Equal entries are not always repeated. Entries after “also recorded” stand apart in the source; their conditions may differ.
# What was measured:
# PC9 cells = assay: MTT anti-proliferation assay, PC9 cells; assay type: cell-based, human; details: for MTT, PC9, value relative to control (=100), single replicate: 24 h
# Description: (§1) To evaluate the tumor-selective activity of compounds 4l and 4m, dose–response studies were performed on wild-type PC9 and gefitinib-resistant PC9/GR cell lines. […] Subtoxic concentrations of 25, 50, and 75 μM were employed to ensure specificity for drug-resistant phenotypes while preserving normal cell viability. […] To assess long-term proliferative potential, clonogenic survival assays were performed. Cells pretreated with 4l (24 h) were trypsinized to generate single-cell suspensions, plated at 300 cells/well, and cultured for 14 days. […] Cell migration ability was evaluated by the scratch healing assay. […] To evaluate the pro-apoptotic efficacy of 4l, we employed a dual-staining approach using Annexin V-FITC and propidium iodide (PI) for quadrant-specific quantification of programmed cell death. Annexin V binds externalized phosphatidylserine (PS), a hallmark of early apoptosis, while PI permeabilization discriminates late-stage apoptotic or necrotic cells.
# (§2) The human normal lung epithelial cell line BEAS-2B, non-small cell lung carcinoma (NSCLC) cell line PC9, and gefitinib-resistant PC9/GR cell line were purchased from Procell Life Science & Technology Co., Ltd. (Wuhan, China). All cell lines were maintained in RPMI-1640 medium (BI, Beit Haemek, Mateh Asher, Israel) supplemented with 10% fetal bovine serum (FBS, Gibco, Thermo Fisher Scientific, Waltham, MA, USA) and 1% penicillin–streptomycin–amphotericin B sterile solution (Solarbio, Beijing, China). Cells were cultured at 37 °C in a humidified incubator with 5% CO2. For subculturing, cells were harvested using trypsin-EDTA solution upon reaching 70–80% confluence and resuspended at appropriate densities for subsequent experiments.
# (§3) MTT: Cells (5 × 10^4/mL) were treated with 4l (25–100 μM, 24–48 h), incubated with MTT (10 μL/well, 4–6 h), and dissolved in DMSO. Absorbance (490 nm) was measured to assess viability.
# PC9/GR cells [1] = assay: BODIPY 493/503 lipid droplet staining; assay type: cell-based, human
# Source text: To investigate the relationship between intracellular cholesterol levels and gefitinib resistance, we measured cholesterol content in PC9 (gefitinib-sensitive) and PC9/GR (gefitinib-resistant) cells. […] To further elucidate the role of TM7SF2 in mediating the cholesterol-lowering effects of compound 4l in PC9/GR cells, we generated a TM7SF2-overexpressing PC9/GR cell line via plasmid transfection.
# PC9/GR cells [2] = assay: Scratch (wound) healing assay; assay type: cell-based, human; details: for relative wound healing area: vehicle control 44.08%
# Description: PC9/GR cells were grown to 90% confluence. A uniform wound was created in the monolayer using a sterile 200 µL pipette tip. The initial wound area was imaged immediately (0 h) using phase-contrast microscopy. After 24 h of incubation in complete medium, the wound area was re-imaged. The relative wound closure rate was calculated from the change in wound area using ImageJ software (version 1.53).
# p38α = p38α (Homo sapiens, UniProt Q16539); assay: ADP-Glo Kinase Assay, p38α MAP kinase inhibition; assay type: biochemical; details: read-out: p38α MAP kinase inhibitory activity IC50
# Sequence of p38α (Q16539 whole entry): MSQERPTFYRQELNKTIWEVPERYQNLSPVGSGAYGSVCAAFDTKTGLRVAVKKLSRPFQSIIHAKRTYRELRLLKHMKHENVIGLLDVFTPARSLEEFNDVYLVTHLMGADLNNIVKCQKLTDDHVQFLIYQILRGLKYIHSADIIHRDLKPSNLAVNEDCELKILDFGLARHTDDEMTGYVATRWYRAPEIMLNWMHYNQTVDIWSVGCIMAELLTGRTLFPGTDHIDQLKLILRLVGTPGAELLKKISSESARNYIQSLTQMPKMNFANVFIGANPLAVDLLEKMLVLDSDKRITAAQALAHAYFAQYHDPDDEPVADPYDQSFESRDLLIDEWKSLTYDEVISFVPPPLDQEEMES
# Description: The capacity of brominated tyrosine derivatives to inhibit p38α activity was evaluated using the ADP-Glo Kinase Assay.
# BEAS-2B cells = assay: MTT cytotoxicity assay, normal bronchial epithelial BEAS-2B cells; assay type: cell-based, human
# Description: The cytotoxicity of compound 4l on normal human bronchial epithelial cells (BEAS-2B) was also evaluated using the MTT assay. Cells treated with 0.1% DMSO served as the vehicle control.
# as §2, §3
# [3] = test system: C/EBPβ binding to the TM7SF2 promoter region; assay: ChIP-qPCR of C/EBPβ binding to the TM7SF2 promoter; assay type: cell-based, human; details: Anti-C/EBPβ group of PC9/GR cells treated with 4l
# Source text: We obtained the gene promoter sequence of TM7SF2 from the NCBI database and utilized online databases JASPAR, UCSC, and hTFtarget to predict potential transcription factors for TM7SF2 (Table S2). […] Some studies indicate that p38 can induce C/EBPβ expression through the activation of p38 MAPK, JNK, or ERK in different experimental environments. We conducted Western blot experiments to detect changes in C/EBPβ expression and p38 protein activation and used ChIP and qPCR to determine whether C/EBPβ can target the TM7SF2 promoter region. […] Furthermore, the strength of this direct binding may be related to intracellular cholesterol levels.
# ChIP: 4l treated cells were crosslinked (1% formaldehyde, 20 min), lysed, and sonicated. Chromatin was immunoprecipitated with target antibodies, washed, and eluted. DNA was purified for qPCR.
# qPCR: SYBR Green-based reactions (20 μL) included primers (0.4 μM each) and template DNA.
# TM7SF2 = assay: Western blot / immunofluorescence of TM7SF2 protein in PC9/GR cells; assay type: cell-based, human; details: 4l-treated vs untreated PC9/GR, immunoblotting
# Source text: By comparing PC9/GR treated with the small molecule compound 4l against untreated PC9/GR controls, we identified significant differentially expressed genes (DEGs). […] The results of the GO enrichment analysis further emphasized the significant impact of the small molecule compound 4l on steroid biosynthesis and metabolism in lung cancer cells, with the top five pathways being steroid biosynthesis, steroid metabolism, the metabolism of hydroxylated compounds, steroid biosynthesis, and cholesterol biosynthesis (Figure 4C). […] TM7SF2 has been identified as a critical regulator of cholesterol biosynthesis and steroid metabolism in lung cancer cells, a finding central to overcoming chemoresistance in NSCLC [28]. Thus, we selected TM7SF2 as the target gene for further experiments and investigated the protein expression of TM7SF2 in 4l-treated PC9/GR cells using immunoblotting.
# Western blot: Proteins extracted with RIPA buffer were quantified (BCA), separated by SDS-PAGE, transferred to PVDF membranes, and probed with antibodies. Signals were detected by ECL.
# PC9/GR cells [4] = assay: MTT anti-proliferation assay, gefitinib-resistant PC9/GR cells; assay type: cell-based, human; details: for MTT, PC9/GR, value relative to control (=100), single replicate: 24 h
# Description: as §1, §2, §3
# [5] = fourth column = 75 μM by match with b18
# [6] = second column = 25 μM by match with b18
# [7] = third column = 50 μM by match with b18
compound,measurement,setting,value
"O=C(NCCc1cc(Br)c(O)c(Br)c1)Nc1ccc(F)cc1 [4l, 1-(3,5-dibromo-4-hydroxyphenethyl)-3-(4-fluorophenyl)urea]","MTT, PC9, value relative to control (=100), single replicate",PC9 cells; 25 (μM),96.45 and 96.61 and 99.63 and 98.61
same,"MTT, PC9, value relative to control (=100), single replicate",PC9 cells; 50 (μM),81.78 and 87.43 and 80.72 and 89.73
same,"MTT, PC9, value relative to control (=100), single replicate",PC9 cells; 75 (μM),88.89 and 73.34 and 79.63 and 70.04
same,"MTT, PC9, value relative to control (=100), single replicate",PC9 cells; 100 (μM),57.64 and 69.62 and 60.69 and 61.33
same,IC50,"PC9 cells; Homo sapiens, PC-9, wild-type PC9, MTT, 24-hour treatment, 0–100 μM, read-out: IC50, growth inhibition",136 µM
same,lipid droplet accumulation,PC9/GR cells [1],significantly inhibited this lipid accumulation
same,relative wound healing area,PC9/GR cells [2]; 25 μM,25.32%
same,relative wound healing area,PC9/GR cells [2]; 50 μM,27.45%
same,relative wound healing area,PC9/GR cells [2]; 75 μM,15.45%
same,"relative wound healing area, mean of replicates",PC9/GR cells [2]; [5],15.4595
same,"relative wound healing area, single replicate",PC9/GR cells [2]; [5],9.798 and 22.5542 and 10.9511 and 18.5341
same,"relative wound healing area, mean of replicates",PC9/GR cells [2]; [6],25.3251
same,"relative wound healing area, single replicate",PC9/GR cells [2]; [6],23.8842 and 10.9955 and 36.4639 and 29.9568
same,"relative wound healing area, mean of replicates",PC9/GR cells [2]; [7],27.4562
same,"relative wound healing area, single replicate",PC9/GR cells [2]; [7],33.9434 and 27.2189 and 28.6416 and 20.021
same,IC50,p38α,0.0097 ± 0.0014 µM
same,"MTT, normal cells, value relative to control (=100), single replicate","BEAS-2B cells; 25 (μM), 24 h",88.6 and 95.3 and 97.6 and 88.2
same,"MTT, normal cells, value relative to control (=100), single replicate","BEAS-2B cells; 25 (μM), 48 h",90.6 and 83.5 and 89.7 and 76.4
same,anti-proliferative effect on BEAS-2B cells,"BEAS-2B cells; 25 to 100 μM, 24 h",no significant anti-proliferative effects
same,"MTT, normal cells, value relative to control (=100), single replicate","BEAS-2B cells; 50 (μM), 24 h",80.6 and 83.5 and 79.7 and 76.4
same,"MTT, normal cells, value relative to control (=100), single replicate","BEAS-2B cells; 50 (μM), 48 h",79.8 and 82.9 and 80.5 and 70.5
same,"MTT, normal cells, value relative to control (=100), single replicate","BEAS-2B cells; 75 (μM), 24 h",79.4 and 80.4 and 76.3 and 78.9
same,"MTT, normal cells, value relative to control (=100), single replicate","BEAS-2B cells; 75 (μM), 48 h",75.2 and 77.7 and 73.1 and 76.4
same,"MTT, normal cells, value relative to control (=100), single replicate","BEAS-2B cells; 100 (μM), 24 h",80.2 and 71.5 and 74.6 and 73.5
same,"MTT, normal cells, value relative to control (=100), single replicate","BEAS-2B cells; 100 (μM), 48 h",77.3 and 80.6 and 71 and 69.3
same,cytotoxicity in normal lung cells,BEAS-2B cells; doses ≤ 100 μM,negligible cytotoxicity; also recorded: minimal cytotoxicity
same,cellular proliferation efficiency of BEAS-2B cells,"BEAS-2B cells; prolonged treatment, 48 h",remained comparable to untreated controls
same,C/EBPβ binding to TM7SF2 promoter (specific amplification bands),[3],did not show specific amplification bands
same,TM7SF2 protein expression level,TM7SF2,significantly reduced
same,"MTT, PC9/GR, value relative to control (=100), single replicate",PC9/GR cells [4]; 25 (μM),50.73 and 45.72 and 48.62 and 42.88
same,"MTT, PC9/GR, value relative to control (=100), single replicate",PC9/GR cells [4]; 50 (μM),40.96 and 39.65 and 38.32 and 38.58
same,"MTT, PC9/GR, value relative to control (=100), single replicate",PC9/GR cells [4]; 75 (μM),35.79 and 34.89 and 36.33 and 34.75
same,"MTT, PC9/GR, value relative to control (=100), single replicate",PC9/GR cells [4]; 100 (μM),32.66 and 25.67 and 34.43 and 24.78
same,IC50,"PC9/GR cells [4]; Homo sapiens, gefitinib-resistant PC9/GR, MTT, 24-hour treatment, 0–100 μM, read-out: IC50, growth inhibition",35.2 µM
